The values that follow come from US20220304349A1, “Steviol Glycoside Compositions for Oral Ingestion or Use” (CARGILL, Incorporated, priority 2016, published 2022).

A short description of data set [1]: Sensory evaluation by experienced tasters in unsweetened black tea (Example 5, Test A). Type of data set: in vivo, human. The note with it: about 200 ppm in tea. The protocol: (§1) Glycoside samples (SG101-104) were isolated and purified from fermentation broth, purified Rebs A, B, and D are of leaf origin and Reb M is chemically synthesized. All samples were dissolved in reverse osmosis water at the concentrations indicated. Unsweetened black tea was used in one set of experiments. Approximately 2-3 milliliters of each solution was tasted and sensory evaluations conducted by two to three experienced tasters. Test A

The conditions of data set [2]: in vivo; cited from earlier work.
Data set [3] can be described thus: Equilibrium solubility: heating in deionized water at 80° C. for 15 minutes, cooling to room temperature, observation up to 4 days. Type of data set: physicochemical. Details: key to equilibrium solubility at stated concentration: Clear solutions without precipitates are considered soluble. The note with it: for equilibrium solubility: after 80° C. for 15 minutes, at room temperature, up to 4 days. An excerpt:
The composition can optionally be expressed in terms of the concentration of one or more steviol glycoside(s). […] Clear solutions without precipitates are considered soluble. Unless indicated otherwise herein, the term “solubility” refers to “equilibrium solubility.” […]

A short description of data set [4]: Instantaneous solubility: vigorous mixing with deionized water for 10 minutes at room temperature. Type of data set: physicochemical. On the set-up: key to instantaneous solubility at stated concentration: Clear solutions without precipitates are considered soluble. The note with it: for concentration of the rebaudioside in the instantaneously soluble 0.37% solution of the fermentation composition: room temperature water; for instantaneous solubility: water, room temperature. The protocol:
The composition can optionally be expressed in terms of the concentration of one or more steviol glycoside(s). […] Clear solutions without precipitates are considered soluble. Unless indicated otherwise herein, the term “solubility” refers to “equilibrium solubility.”
Instantaneous solubility is determined by mixing steviol glycoisde with deionized water vigorously for 10 minutes at room temperature. […] Clear solutions without precipitates are considered soluble.

Data set [5] in a line: Sensory evaluation by two to three experienced tasters, solutions in reverse osmosis water (Example 5, Tests A and B). Type of data set: in vivo, human. The method, then:
as §1
As used herein, “sucrosey” means having a flavor profile, a sweetness profile, or a flavor profile and a sweetness pofile more similar to that of sucrose.

Data set [6] in a line: Sweetness time intensity (TI) profile in water, SG composition Lot B versus RebM. It is filed as in vivo, human. The note with it: sweetness TI in water vs RebM. The method, then:
Comparison of SG composition Lot B and RebM using TI for sweet.
Training: Descriptive panelists, who are highly trained and experienced on-call taste panelists, had four training sessions. They trained with sucrose references. Then they practiced scoring the samples using the scale on the ballot using a time intensity scale.
Testing: There was at least a 10 minute break in between samples. They were provided with filtered water, sparkling water, carrots, unsalted rice crackers and unsalted saltine crackers during break only. All samples were evaluated in a balanced sequential order one at a time. Panelists swallowed the sample at 10 seconds.
Serving Size/Container: 15 g in a 2 oz cup Serving Temp Room temperature
Sweetness Results (12 panelists; 3 replicates)

The conditions of data set [7]: cited from earlier work.
Data set [8] is described as follows: SEV measurement by trained sensory panel in citric acid buffer at pH=3.0. It is filed as in vivo, human. Particulars: for Sucrose equivalent value / relative sweetness scale- sucrose = 1: 250 ppm in citric buffer, pH = 3.0; for SEV: citric acid buffer pH=3.0. An excerpt: Sweetness may be determined by measuring sucrose equivalent values (SEV) using methods and processes well known to those skilled in the art. For example, SEV may be determined by measuring sweetness equivalence to a reference sucrose solution. Typically, taste panelists are trained to detect and scale sweetness of reference sucrose solutions containing between 10 g to 150 g sucrose/kg (1 to 15 wt % aqueous sucrose solution). A sweetener composition containing one or more glycosides are then tasted at a series of dilutions to determine the concentration of the sweetener composition that is as sweet as a given sucrose reference. For example, if a sweetened solution is as sweet as a 5 wt % sucrose solution, then the sweetened solution is assigned a SEV of 5.
SEV measurements for SG101-104 (listed above and in Table 12) were performed according to the following procedure: A trained sensory panel evaluated solutions of SG101, SG102, SG103, and SG104 at the concentrations specified. Solutions were made in a citric acid buffer at pH=3.0. All solutions were heated to 55° C. for 12 minutes to ensure that all the glycoside material was completely dissolved. The solutions were allowed to cool to room temperature before serving to the panelists. Each solution was given a random 3-digit code and was served to the panelists in random order. Panelists dispensed 2 mL of each solution into their mouths from a pipette. The panelists were then asked to rate the “sweetness intensity” of the solutions and mark their responses on an un-anchored, 15 cm line scale. The length of the line corresponds to the scale values (1-15) on which the participants were trained. The panelists' responses were measured, compiled, and averaged for each sample. Each sample was tested by approximately 12 trained panelists.

On to `C=C1C[C@@]23CC[C@H]4[C@@](C)(CCC[C@@]4(C)C(=O)O[C@@H]4O[C@H](CO)[C@@H](O)[C@H](O[C@@H]5O[C@H](CO)[C@@H](O)[C@H](O)[C@H]5O)[C@H]4O[C@@H]4O[C@H](CO)[C@@H](O)[C@H](O)[C@H]4O)[C@@H]2CC[C@]1(O[C@@H]1O[C@H](CO)[C@@H](O)[C@H](O[C@@H]2O[C@H](CO)[C@@H](O)[C@H](O)[C@H]2O)[C@H]1O[C@@H]1O[C@H](CO)[C@@H](O)[C@H](O)[C@H]1O)C3` [Reb M, rebaudioside M], for which the Sensory comments entry in data set [1] is on record as “Nice subtle sweetness, feels like sugar, but with long linger very good”; in data set [5] (200 ppm in water, Test A), “Typical mid-sweet for Reb M, fairly well rounded, quick rise, some tailing, some bitter”; in data set [5] (400 ppm in water, Test A), “Higher sweet, faster onset than 200 ppm, cotton candy sweetness-skews to HFCS longer linger, sharper bitterness—but not oppressing sweetness”; in data set [5] (Reb M alone in water, Test B, concentration not stated at the comment), “clean, sweet, spiky sweetness”. Further, the sweetness characteristics result in data set [2] is “higher sweetness intensity and is more potent than other steviol glycosides”. For the same compound, the “equilibrium solubility at stated concentration” value in data set [3] (0.10%) is reported as “soluble”; in data set [3] (0.13%), “soluble”; in data set [3] (0.20%), “soluble”; in data set [3] (0.30%) it was “insoluble”. Also, the results for the equilibrium solubility result in data set [3] and in data set [3] (listed as rebaudioside M) were “at least 0.2%” and “about 0.2%”, respectively. For the same compound, the “instantaneous solubility at stated concentration” value in data set [4] (0.10%) is on record as “soluble”; in data set [4] (0.13%) it was “soluble”; in data set [4] (0.20%), “insoluble”; in data set [4] (0.30%), “insoluble”. Besides, in data set [4] (in the presence of compounds SG101-104 (fermentation derived composition)), the “improvement (increase) in instantaneous solubility over the pure rebaudioside” value is > 60%. Moreover, the “concentration of the rebaudioside in the instantaneously soluble 0.37% solution of the fermentation composition” value in data set [4] is on record as 0.21%; in data set [4] (listed as reb M), “about 0.21%”. Besides, the instantaneous solubility result in data set [4] is on record as “at least 0.13%”; in data set [4] (listed as rebaudioside M), “about 0.13%”. This compound returned a Perimeter in data set [6] of 58.3. Also, the AUC in data set [6] (area under the curve (total)) turned out to be 132.9a. The “Plateau Time” value in data set [6] (duration of peak intensity) is on record as 4.1a. In data set [6] (duration time of sensation), this compound displayed a Tdur of 35.4a. The Imax in data set [6] (peak intensity, 12 panelists, 3 replicates) turned out to be 5.9. For the same compound, the APostMax in data set [6] (post-peak area under the curve) amounted to 90.0a. In addition, the APreMax in data set [6] (pre-peak area under the curve) stood at 43.0. For the same compound, the “Rate Decrease” value in data set [6] (slope after peak intensity) is −0.2a. Further, the “Rate Increase” value in data set [6] (slope before peak intensity) was determined as 0.7. The compound also returned a Tonset in data set [6] (time sensation is first perceived) of 0.8. In data set [6] (time to extinction), this compound registered a Text of 36.3a. Moreover, the “aqueous solubility in words” value in data set [7] was “poor aqueous solubility and dissolution qualities in beverage formulations”.
For the compound `C=C1C[C@@]23CCC4[C@](C)(C(=O)OC5OC(CO)C(O)C(OC6OC(CO)C(O)C(O)C6O)C5OC5OC(CO)C(O)C(O)C5O)CCC[C@@]4(C)[C@@H]2CC[C@]1(OC1OC(CO)C(O)C(OC2OC(COC4OC(CO)C(O)C(O)C4O)C(O)C(O)C2O)C1OC1OC(CO)C(O)C(O)C1O)C3` (stereo partly shown) [SG104], the Sensory comments entry in data set [1] was “As sweet as Reb M, very sucrosey compared to Reb M, a little back end licorice”; in data set [5] (200 ppm in water, Test A), “as sweet or sweeter than 200 ppm Reb M, more rounded sweetness, enhanced sugar quality effects (sensations reminiscent of sucrose, vanilla), “fuller” feeling”. Further, the Sucrose equivalent value in data set [8] was 6.5. Moreover, the “relative sweetness scale- sucrose = 1” value in data set [8] was found to be 260X.
As to `C=C1C[C@@]23CCC4[C@](C)(C(=O)OC5OC(CO)C(O)C(OC6OC(CO)C(O)C(O)C6O)C5OC5OC(CO)C(O)C(O)C5O)CCC[C@@]4(C)[C@@H]2CC[C@]1(OC1OC(COC2OC(CO)C(O)C(O)C2O)C(O)C(OC2OC(CO)C(O)C(O)C2O)C1OC1OC(CO)C(O)C(O)C1O)C3` (stereo partly shown) [SG102], the Sensory comments result in data set [1] is listed as “Not sweet, slightly less astringent, some additional roundedness”; in data set [5] (200 ppm in water, Test A), “a bit sweeter than SG101, sweetness does have quick onset”. In addition, the SEV in data set [8] (200 ppm) amounted to 1.0; in data set [8] (400 ppm), 1.5.
For the compound `C=C1C[C@@]23CCC4[C@](C)(C(=O)OC5OC(CO)C(O)C(O)C5OC5OC(CO)C(O)C(O)C5O)CCC[C@@]4(C)[C@@H]2CC[C@]1(OC1OC(CO)C(O)C(OC2OC(COC4OC(CO)C(O)C(O)C4O)C(O)C(O)C2O)C1OC1OC(CO)C(O)C(O)C1O)C3` (stereo partly shown) [SG103], the Sensory comments result in data set [1] is given as “Slower onset than Reb M by itself, not as sweet as Reb M, slightly more licorice aftertaste”; in data set [5] (200 ppm in water, Test A) it was “as sweet or sweeter than 200 ppm Reb M, more sucrosey, sugary quality characteristics (high fructose corn syrup (HFCS), cotton candy notes) are reminiscent of Reb M at 400 ppm but not as sweet, “fuller” feeling”. The Sucrose equivalent value in data set [8] is given as 4.8. Further, in data set [8], the “relative sweetness scale- sucrose = 1” value was 192X.
Turning to `C=C1C[C@@]23CCC4[C@](C)(C(=O)OC5OC(CO)C(O)C(O)C5OC5OC(CO)C(O)C(O)C5O)CCC[C@@]4(C)[C@@H]2CC[C@]1(OC1OC(COC2OC(CO)C(O)C(O)C2O)C(O)C(OC2OC(CO)C(O)C(O)C2O)C1OC1OC(CO)C(O)C(O)C1O)C3` (stereo partly shown) [SG101], the Sensory comments result is “Zero sweetness, seems less than in water, naked tea” in data set [1] and “not sweet, astringent, cloying—mouth drying on the tongue” in data set [5] (200 ppm in water, Test A). The SEV in data set [8] (200 ppm) is given as 0.6; in data set [8] (400 ppm), 1.2; in data set [8] (500 ppm), 1.6.
